# Laboratory results taken from patent US12686652B2, “Methods of increasing irrigation water and fertilizer delivery to soil using formic acid and formate salts, making a formate salt from carbon dioxide, and generating a carbon credit” (Deerpoint Group, Inc., priority 2023, dated 2026).
# Several values for one entry are separate records, joined by “and”; a condition that tells them apart may be missing. Identical values can stand only once. Like-named read-outs stand apart in the source and are kept apart here.
# Experiments:
# [1] = cited from earlier work
# [2] = for Drainage Rate: Time (50 g), percentage relative to irrigation water / Drainage Rate: liquid eluted at 60 mins, percentage relative to irrigation water / Drainage Rate: liquid eluted at 120 mins, percentage relative to irrigation water / Liquid Eluted after 60 min / Liquid Eluted after 120 min / Time (50 g of liquid, in min) / More liquid eluted by mass than the irrigation water: first farm soil; for Liquid Eluted after 60 min / Liquid Eluted after 120 min / Time (50 g of liquid, in min): Ca formate 22 ppm by moles, HCO2H 0.33% by weight, average of two columns
# Text: The objective was to investigate the behavior of different irrigation water treatments and determine the relative amounts of water that passed through the soil columns. The column retention times reflect the rate at which the liquid passes through the soil. Understanding these retention times provides insights about the transport and movement of irrigation water (and any fertilizers dissolved therein) through the soil, which has implications for the volume of water passing into and through the root zone, nutrient availability to crops, leaching of contaminants, and overall soil health.
# The data in Table 1 is for the average of the two soil samples.
# [3] = first farm soil, duplicate columns A and B
# [4] = first pass
# Text: The irrigation water at the second farm was from a different source than the first farm.
# [5] = ICP and flow injection (FIA) analyses of solutions passed through soil columns, second farm; details: single soil sample
# Text: FIA was used to determine the content of the listed anion (e.g., NO3, Cl, PO4, etc.). Results are presented from a single soil sample.
# [6] = 1st pass, Alternating = formic acid pass
# [7] = 2nd pass, Alternating = calcium formate pass
# [8] = 3rd pass, Alternating = formic acid pass
# [9] = 4th pass, Alternating = calcium formate pass
# 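For Mn in solution passed through soil column (ICP) in this document: eluate from PVC columns holding 100 g of dry ground farm soil, analysed by ICP-OES for element content after the solution had drained through, irrigation water measured as received for reference.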
structure (smiles),measurement,setting,value
[Fe+2] [Fe^+2],Solubility with anion CO3^−2,[1],"VSS (VSS means very slightly soluble (20-2,000 ppm))"
same,Solubility with anion CO3^−2,[1]; listed as Fe^+3,I (I means insoluble (<20 ppm))
same,Solubility with anion Cl^−,[1]; anion Cl^−,"S (S means soluble (over 5,000 ppm))"
same,Solubility with anion HCO3^−,[1],"SS (SS means slightly soluble (2,000 to 5,000 ppm))"
same,Solubility with anion HCO3^−,[1]; listed as Fe^+3,I (I means insoluble (<20 ppm))
same,Solubility with anion NO3^−,[1]; anion NO3^−,"S (S means soluble (over 5,000 ppm))"
same,Solubility with anion OH^−,[1],"VSS (VSS means very slightly soluble (20-2,000 ppm))"
same,Solubility with anion OH^−,[1]; listed as Fe^+3,I (I means insoluble (<20 ppm))
same,Solubility with anion PO4^−3,[1]; anion PO4^−3,I (I means insoluble (<20 ppm))
same,Solubility with anion SO4^−2,[1]; anion SO4^−2,"S (S means soluble (over 5,000 ppm))"
same,Solubility with anion S^−2,[1]; anion S^−2,I (I means insoluble (<20 ppm))
"O=CO [HCO2H, formic acid]","Drainage Rate: Time (50 g), percentage relative to irrigation water",[2]; 1st pass,50.0%
same,"Drainage Rate: liquid eluted at 60 mins, percentage relative to irrigation water",[2]; 1st pass,214%
same,"Drainage Rate: liquid eluted at 120 mins, percentage relative to irrigation water",[2]; 1st pass,168%
same,Liquid Eluted after 60 min,[2]; 1st pass,34.1 g
same,Liquid Eluted after 120 min,[2]; 1st pass,59.7 g
same,"Time (50 g of liquid, in min)",[2]; 1st pass,90 min
same,"Drainage Rate: Time (50 g), percentage relative to irrigation water",[2]; 2nd pass,50.0%
same,"Drainage Rate: liquid eluted at 60 mins, percentage relative to irrigation water",[2]; 2nd pass,206%
same,"Drainage Rate: liquid eluted at 120 mins, percentage relative to irrigation water",[2]; 2nd pass,198%
same,Liquid Eluted after 60 min,[2]; 2nd pass,43.9 g
same,Liquid Eluted after 120 min,[2]; 2nd pass,78.9 g
same,"Time (50 g of liquid, in min)",[2]; 2nd pass,90 min
same,"Drainage Rate: Time (50 g), percentage relative to irrigation water",[2]; 3rd pass,50.0%
same,"Drainage Rate: liquid eluted at 60 mins, percentage relative to irrigation water",[2]; 3rd pass,189%
same,"Drainage Rate: liquid eluted at 120 mins, percentage relative to irrigation water",[2]; 3rd pass,189%
same,Liquid Eluted after 60 min,[2]; 3rd pass,36.0 g
same,Liquid Eluted after 120 min,[2]; 3rd pass,68.3 g
same,"Time (50 g of liquid, in min)",[2]; 3rd pass,90 min
same,"Drainage Rate: Time (50 g), percentage relative to irrigation water",[2]; 4th pass,50.0%
same,"Drainage Rate: liquid eluted at 60 mins, percentage relative to irrigation water",[2]; 4th pass,207%
same,"Drainage Rate: liquid eluted at 120 mins, percentage relative to irrigation water",[2]; 4th pass,183%
same,Liquid Eluted after 60 min,[2]; 4th pass,40.5 g
same,Liquid Eluted after 120 min,[2]; 4th pass,69.5 g
same,"Time (50 g of liquid, in min)",[2]; 4th pass,90 min
same,Liquid retained by the soil samples on average,"[2]; first pass, dry soil, first farm, 100 ml added (FIG. 1)",about 36 ml
same,More liquid eluted by mass than the irrigation water,[2]; first pass,170-210%
same,More liquid eluted by mass than the irrigation water,[2]; fourth pass,180-210%
same,More liquid eluted by mass than the irrigation water,[2]; second pass,200-210%
same,More liquid eluted by mass than the irrigation water,[2]; third pass,~ 190%
same,B in solution passed through soil column (ICP),[3]; 1st pass,4.34 ppm and 4.25 ppm
same,Ca in solution passed through soil column (ICP),[3]; 1st pass,268.8 ppm and 261.2 ppm
same,K in solution passed through soil column (ICP),[3]; 1st pass,19.52 ppm and 18.52 ppm
same,Mg in solution passed through soil column (ICP),[3]; 1st pass,107.6 ppm and 103.1 ppm
same,Mn in solution passed through soil column (ICP),[3]; 1st pass,4.40 ppm and 4.25 ppm
same,Na in solution passed through soil column (ICP),[3]; 1st pass,111.2 ppm and 109.8 ppm
same,P in solution passed through soil column (ICP),[3]; 1st pass,1.06 ppm and 0.55 ppm
same,S in solution passed through soil column (ICP),[3]; 1st pass,83.5 ppm and 74.5 ppm
same,Si in solution passed through soil column (ICP),[3]; 1st pass,31.3 ppm and 30.9 ppm
same,B in solution passed through soil column (ICP),[3]; 2nd pass,2.42 ppm and 2.41 ppm
same,Ca in solution passed through soil column (ICP),[3]; 2nd pass,173.7 ppm and 205.0 ppm
same,K in solution passed through soil column (ICP),[3]; 2nd pass,15.36 ppm and 17.82 ppm
same,Mg in solution passed through soil column (ICP),[3]; 2nd pass,69.7 ppm and 79.2 ppm
same,Mn in solution passed through soil column (ICP),[3]; 2nd pass,3.32 ppm and 3.98 ppm
same,Na in solution passed through soil column (ICP),[3]; 2nd pass,53.9 ppm and 49.3 ppm
same,P in solution passed through soil column (ICP),[3]; 2nd pass,1.01 ppm and 0.73 ppm
same,S in solution passed through soil column (ICP),[3]; 2nd pass,22.8 ppm and 22.1 ppm
same,Si in solution passed through soil column (ICP),[3]; 2nd pass,34.1 ppm and 40.9 ppm
same,B in solution passed through soil column (ICP),[3]; 3rd pass,2.09 ppm and 1.82 ppm
same,Ca in solution passed through soil column (ICP),[3]; 3rd pass,167.8 ppm and 176.4 ppm
same,K in solution passed through soil column (ICP),[3]; 3rd pass,14.81 ppm and 16.46 ppm
same,Mg in solution passed through soil column (ICP),[3]; 3rd pass,66.6 ppm and 67.2 ppm
same,Mn in solution passed through soil column (ICP),[3]; 3rd pass,5.00 ppm and 5.23 ppm
same,Na in solution passed through soil column (ICP),[3]; 3rd pass,36.5 ppm and 31.2 ppm
same,P in solution passed through soil column (ICP),[3]; 3rd pass,1.09 ppm and 0.90 ppm
same,S in solution passed through soil column (ICP),[3]; 3rd pass,13.4 ppm and 11.5 ppm
same,Si in solution passed through soil column (ICP),[3]; 3rd pass,46.9 ppm and 49.9 ppm
same,B in solution passed through soil column (ICP),[3]; 4th pass,0.79 ppm and 0.73 ppm
same,Ca in solution passed through soil column (ICP),[3]; 4th pass,130.3 ppm and 140.7 ppm
same,K in solution passed through soil column (ICP),[3]; 4th pass,13.34 ppm and 15.64 ppm
same,Mg in solution passed through soil column (ICP),[3]; 4th pass,50.6 ppm and 52.5 ppm
same,Mn in solution passed through soil column (ICP),[3]; 4th pass,4.46 ppm and 4.84 ppm
same,Na in solution passed through soil column (ICP),[3]; 4th pass,16.6 ppm and 16.4 ppm
same,P in solution passed through soil column (ICP),[3]; 4th pass,1.33 ppm and 1.63 ppm
same,S in solution passed through soil column (ICP),[3]; 4th pass,3.7 ppm and 3.6 ppm
same,Si in solution passed through soil column (ICP),[3]; 4th pass,34.1 ppm and 35.3 ppm
same,Liquid retained by the soil samples on average,"[4]; dry soil, second farm (FIG. 3)",41 to 42 mL
same,Time of first appearance of liquid from the columns on average,"[4]; dry soil, second farm (FIG. 3)",< 20 min
same,Amount of liquid passed through the columns compared with irrigation water at the same lengths of time,"[4]; second farm, from 20-30 minutes up to 240 minutes",more than three times as much
same,B in solution passed through soil column (ICP),[5]; [6],0.6 ppm
same,Ca in solution passed through soil column (ICP),[5]; [6],260.7 ppm
same,Cl^− in solution passed through soil column (FIA),[5]; [6],304.0 ppm
same,K in solution passed through soil column (ICP),[5]; [6],9.7 ppm
same,Mg in solution passed through soil column (ICP),[5]; [6],69.3 ppm
same,NO3^− in solution passed through soil column (FIA),[5]; [6],0.0 ppm
same,Na in solution passed through soil column (ICP),[5]; [6],345.5 ppm
same,P in solution passed through soil column (ICP),[5]; [6],0.7 ppm
same,S in solution passed through soil column (ICP),[5]; [6],43.8 ppm
same,Si in solution passed through soil column (ICP),[5]; [6],31.8 ppm
same,B in solution passed through soil column (ICP),[5]; [7],0.5 ppm
same,Ca in solution passed through soil column (ICP),[5]; [7],312.7 ppm
same,Cl^− in solution passed through soil column (FIA),[5]; [7],102.8 ppm
same,K in solution passed through soil column (ICP),[5]; [7],9.0 ppm
same,Mg in solution passed through soil column (ICP),[5]; [7],81.3 ppm
same,NO3^− in solution passed through soil column (FIA),[5]; [7],0.0 ppm
same,Na in solution passed through soil column (ICP),[5]; [7],175.2 ppm
same,P in solution passed through soil column (ICP),[5]; [7],1.9 ppm
same,S in solution passed through soil column (ICP),[5]; [7],11.4 ppm
same,Si in solution passed through soil column (ICP),[5]; [7],43.1 ppm
same,B in solution passed through soil column (ICP),[5]; [8],0.4 ppm
same,Ca in solution passed through soil column (ICP),[5]; [8],337.4 ppm
same,Cl^− in solution passed through soil column (FIA),[5]; [8],91.7 ppm
same,K in solution passed through soil column (ICP),[5]; [8],9.9 ppm
same,Mg in solution passed through soil column (ICP),[5]; [8],84.0 ppm
same,NO3^− in solution passed through soil column (FIA),[5]; [8],0.0 ppm
same,Na in solution passed through soil column (ICP),[5]; [8],79.9 ppm
same,P in solution passed through soil column (ICP),[5]; [8],5.8 ppm
same,S in solution passed through soil column (ICP),[5]; [8],8.0 ppm
same,Si in solution passed through soil column (ICP),[5]; [8],51.9 ppm
same,B in solution passed through soil column (ICP),[5]; [9],0.3 ppm
same,Ca in solution passed through soil column (ICP),[5]; [9],286.6 ppm
same,Cl^− in solution passed through soil column (FIA),[5]; [9],92.9 ppm
same,K in solution passed through soil column (ICP),[5]; [9],10.6 ppm
same,Mg in solution passed through soil column (ICP),[5]; [9],65.5 ppm
same,NO3^− in solution passed through soil column (FIA),[5]; [9],0.0 ppm
same,Na in solution passed through soil column (ICP),[5]; [9],66.1 ppm
same,P in solution passed through soil column (ICP),[5]; [9],6.4 ppm
same,S in solution passed through soil column (ICP),[5]; [9],8.3 ppm
same,Si in solution passed through soil column (ICP),[5]; [9],65.2 ppm
